Assay results from the supplement of paper PMC10307832.

Experiments:
Experiment in all cases: relative viability (nuclei count vs DMSO), 5 days (fraction); higher = more cells survive
[1] = compound: CC[C@H](C)N1C=C(C2=C(C=C(C=C21)C3=CN=C(C=C3)N4CCNCC4)C(=O)NCC5=C(C=C(NC5=O)C)C)C [GSK126] + C[C@]1(O)C[C@@H](c2nc(-c3ccc4ccc(-c5ccccc5)nc4c3)c3c(N)nccn32)C1 [Linsitinib] (partner 1 µM)
Outline: (§1)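 Lung cancer cell lines in 1536-well plates got either a single drug or a fixed anchor-drug dose together with five library-drug doses (not always all listed) in √10 steps, by pin tool, on the day after seeding. Nuclei were counted after 5 days, and relative viability is the treated-to-vehicle ratio of nuclei counts. Values are medians of duplicate plates.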

[2] = compound: NS(=O)(=O)OC[C@@H]1C[C@@H](n2ccc3c(N[C@H]4CCc5ccccc54)ncnc32)C[C@@H]1O [MLN4924] + CS(=O)(=O)CCNCc1ccc(-c2ccc3ncnc(Nc4ccc(OCc5cccc(F)c5)c(Cl)c4)c3c2)o1 [Lapatinib] (partner 2 µM)
Outline: as §1

[3] = compound: NS(=O)(=O)OC[C@@H]1C[C@@H](n2ccc3c(N[C@H]4CCc5ccccc54)ncnc32)C[C@@H]1O [MLN4924] + CC(C)C[C@H](NC(=O)[C@H](Cc1ccccc1)NC(=O)c1cnccn1)B(O)O [Bortezomib] (partner 0.002 µM)
Outline: as §1

[4] = compound: NS(=O)(=O)OC[C@@H]1C[C@@H](n2ccc3c(N[C@H]4CCc5ccccc54)ncnc32)C[C@@H]1O [MLN4924] + CC(=O)Nc1cccc(-n2c(=O)n(C3CC3)c(=O)c3c(Nc4ccc(I)cc4F)n(C)c(=O)c(C)c32)c1 [Trametinib] (partner 0.02 µM)
Outline: as §1

UMC-11 was tested, and the relative viability ([1]; first compound 0.08 µM) was 1.14, the relative viability ([1]; first compound 0.253 µM) was 0.978 and the relative viability ([1]; first compound 0.8 µM) was 1.04. The relative viability ([1]; first compound 2.53 µM) was 1.02, the relative viability ([1]; first compound 8 µM) was 1.15 and the relative viability ([2]; first compound 0.04 µM) was 0.39. For the same cell line, the relative viability ([2]; first compound 0.1265 µM) was 0.383, the relative viability ([2]; first compound 0.4 µM) was 0.271 and the relative viability ([2]; first compound 1.265 µM) was 0.122. The relative viability ([2]; first compound 4 µM) was 0.143, the relative viability ([3]; first compound 0.04 µM) was 0.529 and the relative viability ([3]; first compound 0.1265 µM) was 0.301. The relative viability ([3]; first compound 0.4 µM) was 0.269, the relative viability ([3]; first compound 1.265 µM) was 0.1 and the relative viability ([3]; first compound 4 µM) was 0.0977. The relative viability ([4]; first compound 0.04 µM) was 0.487, the relative viability ([4]; first compound 0.1265 µM) was 0.367 and the relative viability ([4]; first compound 0.4 µM) was 0.253. It also gave a relative viability ([4]; first compound 1.265 µM) of 0.115 and a relative viability ([4]; first compound 4 µM) of 0.142.
